Laboratory results reported in ChEMBL document CHEMBL5137065, “Recent Advances with KDM4 Inhibitors and Potential Applications” (J Med Chem, 2022).
Values belong to the compound of their own block, whether it stands above or below them. Positions of bridges follow the written chain, without caps; N, C: chain ends. Non-standard residues stand in square brackets, D forms with d. Residues, ends and D or L forms follow the SMILES beside them.

Legend:
[1] = target: T1, Lysine-specific demethylase 4A (Homo sapiens, UniProt O75164); assay: Inhibition of KDM4A in human KYSE-150 cells assessed as increase in H3K9me3 level; format: cell-based, KYSE-150 cell line
T1 sequence (O75164 whole entry): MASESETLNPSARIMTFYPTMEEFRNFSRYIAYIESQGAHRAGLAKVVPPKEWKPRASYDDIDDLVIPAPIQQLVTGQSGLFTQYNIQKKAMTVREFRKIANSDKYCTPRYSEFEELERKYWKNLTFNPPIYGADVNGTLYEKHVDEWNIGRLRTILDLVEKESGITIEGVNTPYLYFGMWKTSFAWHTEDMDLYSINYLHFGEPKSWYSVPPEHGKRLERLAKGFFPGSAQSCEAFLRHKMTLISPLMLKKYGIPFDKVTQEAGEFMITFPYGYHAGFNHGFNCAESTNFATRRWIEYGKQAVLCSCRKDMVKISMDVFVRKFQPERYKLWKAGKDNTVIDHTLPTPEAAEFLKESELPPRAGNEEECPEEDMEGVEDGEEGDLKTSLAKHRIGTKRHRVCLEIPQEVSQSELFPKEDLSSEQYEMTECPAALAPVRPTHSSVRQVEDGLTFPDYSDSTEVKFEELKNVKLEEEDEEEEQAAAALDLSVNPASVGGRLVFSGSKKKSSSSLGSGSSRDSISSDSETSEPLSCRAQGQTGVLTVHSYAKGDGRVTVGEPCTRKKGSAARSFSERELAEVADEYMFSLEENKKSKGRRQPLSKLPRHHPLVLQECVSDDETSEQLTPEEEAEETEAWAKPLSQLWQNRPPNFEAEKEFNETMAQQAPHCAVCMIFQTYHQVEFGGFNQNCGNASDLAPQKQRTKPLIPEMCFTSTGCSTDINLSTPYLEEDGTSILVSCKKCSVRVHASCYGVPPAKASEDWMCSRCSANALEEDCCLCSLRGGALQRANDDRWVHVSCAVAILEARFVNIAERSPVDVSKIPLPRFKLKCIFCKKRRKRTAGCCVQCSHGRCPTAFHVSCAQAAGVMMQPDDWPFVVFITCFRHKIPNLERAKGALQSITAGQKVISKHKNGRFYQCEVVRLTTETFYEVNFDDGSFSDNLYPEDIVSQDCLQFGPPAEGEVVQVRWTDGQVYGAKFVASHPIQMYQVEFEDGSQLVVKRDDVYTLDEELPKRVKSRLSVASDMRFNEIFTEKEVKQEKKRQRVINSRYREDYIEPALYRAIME

[2] = test system: KYSE-150 cell line; assay: Antiproliferative activity against human KYSE-150 cells; format: functional
[3] = test system: HL-60; assay: Antiproliferative activity against human HL-60 cells; format: functional
[4] = target: T2, Lysine-specific demethylase 2A (Homo sapiens, UniProt Q9Y2K7); assay: Inhibition of KDM2A in human MIA PaCa-2 cells assessed as induction of H3K36me2 measured by immunofluorescence assay; format: cell-based
T2 sequence (Q9Y2K7 whole entry): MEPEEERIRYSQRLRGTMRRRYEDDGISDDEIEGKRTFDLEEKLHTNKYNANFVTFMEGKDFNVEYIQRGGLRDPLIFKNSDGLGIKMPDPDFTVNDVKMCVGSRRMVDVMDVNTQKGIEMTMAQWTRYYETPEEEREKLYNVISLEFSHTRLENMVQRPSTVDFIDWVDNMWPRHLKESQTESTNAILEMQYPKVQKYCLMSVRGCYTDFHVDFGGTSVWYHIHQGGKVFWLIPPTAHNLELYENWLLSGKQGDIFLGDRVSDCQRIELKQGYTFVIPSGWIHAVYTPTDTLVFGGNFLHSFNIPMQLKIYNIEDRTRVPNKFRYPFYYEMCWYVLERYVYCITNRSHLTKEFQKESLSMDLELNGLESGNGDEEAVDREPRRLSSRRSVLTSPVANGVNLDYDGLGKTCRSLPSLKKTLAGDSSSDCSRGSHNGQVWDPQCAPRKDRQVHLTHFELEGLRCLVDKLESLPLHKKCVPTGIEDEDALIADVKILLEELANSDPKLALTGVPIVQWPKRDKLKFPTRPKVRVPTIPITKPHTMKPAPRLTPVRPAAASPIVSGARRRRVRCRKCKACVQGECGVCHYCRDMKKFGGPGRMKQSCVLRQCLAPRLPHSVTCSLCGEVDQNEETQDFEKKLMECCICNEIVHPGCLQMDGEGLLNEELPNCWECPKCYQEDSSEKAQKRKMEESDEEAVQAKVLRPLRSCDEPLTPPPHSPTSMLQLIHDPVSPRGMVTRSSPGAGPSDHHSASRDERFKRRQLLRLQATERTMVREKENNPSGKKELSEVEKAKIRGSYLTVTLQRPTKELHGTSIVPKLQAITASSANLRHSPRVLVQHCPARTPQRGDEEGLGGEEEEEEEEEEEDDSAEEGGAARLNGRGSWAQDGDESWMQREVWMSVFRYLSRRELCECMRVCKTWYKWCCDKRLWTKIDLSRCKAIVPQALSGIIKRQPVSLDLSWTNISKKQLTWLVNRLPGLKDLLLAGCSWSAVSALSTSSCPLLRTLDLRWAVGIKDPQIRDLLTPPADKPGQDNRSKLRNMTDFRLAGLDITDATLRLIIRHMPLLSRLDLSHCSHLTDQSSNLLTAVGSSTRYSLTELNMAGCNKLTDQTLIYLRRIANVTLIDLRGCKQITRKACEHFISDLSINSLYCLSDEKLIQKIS

[5] = target: T1, Lysine-specific demethylase 4A
[6] = target: T3, Lysine-specific demethylase 4B (Homo sapiens, UniProt O94953); assay: Inhibition of KDM4B (unknown origin) measured by AlphaScreen assay
T3 sequence (O94953 whole entry): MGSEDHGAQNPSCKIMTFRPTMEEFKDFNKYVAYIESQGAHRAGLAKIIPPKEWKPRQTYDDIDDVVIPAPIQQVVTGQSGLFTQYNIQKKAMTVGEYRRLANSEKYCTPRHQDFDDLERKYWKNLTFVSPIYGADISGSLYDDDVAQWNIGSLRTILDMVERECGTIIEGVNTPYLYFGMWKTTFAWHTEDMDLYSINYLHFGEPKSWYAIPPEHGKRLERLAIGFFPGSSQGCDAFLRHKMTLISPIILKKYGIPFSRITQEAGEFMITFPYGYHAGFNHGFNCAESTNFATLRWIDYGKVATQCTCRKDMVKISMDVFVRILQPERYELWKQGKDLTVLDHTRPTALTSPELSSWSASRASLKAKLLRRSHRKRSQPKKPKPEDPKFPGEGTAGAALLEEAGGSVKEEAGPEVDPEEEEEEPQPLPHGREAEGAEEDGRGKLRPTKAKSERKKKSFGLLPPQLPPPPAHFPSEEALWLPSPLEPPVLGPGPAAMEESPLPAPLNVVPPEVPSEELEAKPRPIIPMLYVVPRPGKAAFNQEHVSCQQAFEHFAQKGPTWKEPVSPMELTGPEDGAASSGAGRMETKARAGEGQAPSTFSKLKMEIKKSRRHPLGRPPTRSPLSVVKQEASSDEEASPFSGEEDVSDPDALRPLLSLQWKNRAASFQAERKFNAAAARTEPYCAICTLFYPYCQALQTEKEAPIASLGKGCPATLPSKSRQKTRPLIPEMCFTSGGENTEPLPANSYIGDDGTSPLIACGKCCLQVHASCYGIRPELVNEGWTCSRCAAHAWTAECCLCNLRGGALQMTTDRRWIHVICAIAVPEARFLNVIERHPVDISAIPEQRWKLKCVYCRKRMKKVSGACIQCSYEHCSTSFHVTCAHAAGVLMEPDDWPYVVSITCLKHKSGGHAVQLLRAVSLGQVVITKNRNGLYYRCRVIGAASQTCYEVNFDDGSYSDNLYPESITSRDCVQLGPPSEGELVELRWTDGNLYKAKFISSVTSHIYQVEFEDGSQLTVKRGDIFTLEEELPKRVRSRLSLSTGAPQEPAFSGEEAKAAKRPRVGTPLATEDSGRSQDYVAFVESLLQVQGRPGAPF

[7] = target: T4, Lysine-specific demethylase 4C (Homo sapiens, UniProt Q9H3R0); assay: Inhibition of KDM4C (unknown origin) measured by AlphaScreen assay
T4 sequence (Q9H3R0 whole entry): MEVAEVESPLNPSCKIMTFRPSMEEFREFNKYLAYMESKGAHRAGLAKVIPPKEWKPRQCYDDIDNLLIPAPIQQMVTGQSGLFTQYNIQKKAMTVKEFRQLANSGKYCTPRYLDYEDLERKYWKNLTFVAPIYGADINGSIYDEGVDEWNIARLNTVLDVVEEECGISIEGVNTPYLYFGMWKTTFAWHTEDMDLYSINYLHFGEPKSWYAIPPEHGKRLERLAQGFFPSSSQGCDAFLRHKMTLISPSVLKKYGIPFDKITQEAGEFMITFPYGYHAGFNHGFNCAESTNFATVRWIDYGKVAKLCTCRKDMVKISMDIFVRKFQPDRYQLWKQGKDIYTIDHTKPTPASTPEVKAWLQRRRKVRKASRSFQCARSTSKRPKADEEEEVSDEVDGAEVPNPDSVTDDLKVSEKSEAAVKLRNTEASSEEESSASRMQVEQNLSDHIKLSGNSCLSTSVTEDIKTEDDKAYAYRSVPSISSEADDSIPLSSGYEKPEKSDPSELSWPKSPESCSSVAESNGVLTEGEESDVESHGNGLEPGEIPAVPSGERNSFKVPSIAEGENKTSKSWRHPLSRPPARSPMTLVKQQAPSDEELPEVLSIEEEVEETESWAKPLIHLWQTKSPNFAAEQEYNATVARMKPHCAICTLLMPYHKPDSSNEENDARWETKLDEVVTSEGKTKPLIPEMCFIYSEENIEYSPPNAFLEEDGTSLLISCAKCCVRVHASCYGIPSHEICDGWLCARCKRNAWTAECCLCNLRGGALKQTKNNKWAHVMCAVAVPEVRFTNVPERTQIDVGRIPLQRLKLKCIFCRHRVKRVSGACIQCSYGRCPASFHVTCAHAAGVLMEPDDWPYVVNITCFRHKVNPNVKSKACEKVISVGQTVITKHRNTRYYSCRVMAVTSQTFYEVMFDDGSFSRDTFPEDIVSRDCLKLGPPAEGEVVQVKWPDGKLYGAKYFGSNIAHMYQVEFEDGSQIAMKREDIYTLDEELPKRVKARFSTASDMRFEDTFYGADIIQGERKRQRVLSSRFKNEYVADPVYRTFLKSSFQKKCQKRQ

[8] = target: Lysine-specific demethylase 5A (Homo sapiens, UniProt P29375); assay: Inhibition of KDM5A (unknown origin) measured by AlphaScreen assay
Chain of Lysine-specific demethylase 5A (P29375 whole entry): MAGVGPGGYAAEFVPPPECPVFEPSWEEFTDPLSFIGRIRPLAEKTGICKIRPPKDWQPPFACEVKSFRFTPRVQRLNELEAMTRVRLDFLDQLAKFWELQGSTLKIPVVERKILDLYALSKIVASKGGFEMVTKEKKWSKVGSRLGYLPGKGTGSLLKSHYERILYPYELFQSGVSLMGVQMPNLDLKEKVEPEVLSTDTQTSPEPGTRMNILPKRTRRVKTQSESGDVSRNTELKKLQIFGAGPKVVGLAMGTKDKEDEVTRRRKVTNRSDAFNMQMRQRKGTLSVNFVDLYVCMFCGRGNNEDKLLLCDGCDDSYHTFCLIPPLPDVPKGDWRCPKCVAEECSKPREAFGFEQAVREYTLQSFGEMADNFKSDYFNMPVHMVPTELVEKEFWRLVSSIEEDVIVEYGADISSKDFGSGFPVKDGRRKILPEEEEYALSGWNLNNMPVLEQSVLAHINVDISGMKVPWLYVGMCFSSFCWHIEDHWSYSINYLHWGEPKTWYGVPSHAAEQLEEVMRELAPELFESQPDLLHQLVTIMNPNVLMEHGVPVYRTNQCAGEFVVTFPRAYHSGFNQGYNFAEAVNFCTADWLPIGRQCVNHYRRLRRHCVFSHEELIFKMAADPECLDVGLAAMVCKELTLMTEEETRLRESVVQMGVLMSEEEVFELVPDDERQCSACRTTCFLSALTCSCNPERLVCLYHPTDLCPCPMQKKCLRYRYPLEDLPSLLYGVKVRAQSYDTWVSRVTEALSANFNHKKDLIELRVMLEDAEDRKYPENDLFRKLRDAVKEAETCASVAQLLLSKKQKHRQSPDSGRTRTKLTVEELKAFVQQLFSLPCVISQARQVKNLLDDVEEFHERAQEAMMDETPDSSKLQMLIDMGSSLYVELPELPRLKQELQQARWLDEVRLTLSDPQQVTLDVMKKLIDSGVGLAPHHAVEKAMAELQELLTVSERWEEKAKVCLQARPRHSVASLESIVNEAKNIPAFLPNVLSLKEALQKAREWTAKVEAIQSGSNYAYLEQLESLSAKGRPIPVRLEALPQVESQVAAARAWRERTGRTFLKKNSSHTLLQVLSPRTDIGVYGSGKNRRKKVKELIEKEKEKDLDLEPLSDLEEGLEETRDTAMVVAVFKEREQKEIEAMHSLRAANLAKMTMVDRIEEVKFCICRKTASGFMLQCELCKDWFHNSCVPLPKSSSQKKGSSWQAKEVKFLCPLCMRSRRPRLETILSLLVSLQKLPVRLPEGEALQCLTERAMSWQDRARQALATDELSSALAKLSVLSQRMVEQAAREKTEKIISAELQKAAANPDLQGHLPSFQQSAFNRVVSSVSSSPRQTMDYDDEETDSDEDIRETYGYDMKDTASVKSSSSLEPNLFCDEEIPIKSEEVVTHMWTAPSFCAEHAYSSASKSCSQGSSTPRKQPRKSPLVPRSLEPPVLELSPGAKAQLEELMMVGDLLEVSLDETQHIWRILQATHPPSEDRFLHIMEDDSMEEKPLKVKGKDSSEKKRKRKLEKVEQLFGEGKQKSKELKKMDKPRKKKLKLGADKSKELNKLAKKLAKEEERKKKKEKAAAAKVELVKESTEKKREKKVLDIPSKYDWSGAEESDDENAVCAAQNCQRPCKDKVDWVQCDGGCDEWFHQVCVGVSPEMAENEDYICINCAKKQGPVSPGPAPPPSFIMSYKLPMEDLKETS

[9] = target: Lysine-specific demethylase 6B (Homo sapiens, UniProt O15054); assay: Inhibition of KDM6B (unknown origin) measured by AlphaScreen assay
Chain of Lysine-specific demethylase 6B (O15054 whole entry): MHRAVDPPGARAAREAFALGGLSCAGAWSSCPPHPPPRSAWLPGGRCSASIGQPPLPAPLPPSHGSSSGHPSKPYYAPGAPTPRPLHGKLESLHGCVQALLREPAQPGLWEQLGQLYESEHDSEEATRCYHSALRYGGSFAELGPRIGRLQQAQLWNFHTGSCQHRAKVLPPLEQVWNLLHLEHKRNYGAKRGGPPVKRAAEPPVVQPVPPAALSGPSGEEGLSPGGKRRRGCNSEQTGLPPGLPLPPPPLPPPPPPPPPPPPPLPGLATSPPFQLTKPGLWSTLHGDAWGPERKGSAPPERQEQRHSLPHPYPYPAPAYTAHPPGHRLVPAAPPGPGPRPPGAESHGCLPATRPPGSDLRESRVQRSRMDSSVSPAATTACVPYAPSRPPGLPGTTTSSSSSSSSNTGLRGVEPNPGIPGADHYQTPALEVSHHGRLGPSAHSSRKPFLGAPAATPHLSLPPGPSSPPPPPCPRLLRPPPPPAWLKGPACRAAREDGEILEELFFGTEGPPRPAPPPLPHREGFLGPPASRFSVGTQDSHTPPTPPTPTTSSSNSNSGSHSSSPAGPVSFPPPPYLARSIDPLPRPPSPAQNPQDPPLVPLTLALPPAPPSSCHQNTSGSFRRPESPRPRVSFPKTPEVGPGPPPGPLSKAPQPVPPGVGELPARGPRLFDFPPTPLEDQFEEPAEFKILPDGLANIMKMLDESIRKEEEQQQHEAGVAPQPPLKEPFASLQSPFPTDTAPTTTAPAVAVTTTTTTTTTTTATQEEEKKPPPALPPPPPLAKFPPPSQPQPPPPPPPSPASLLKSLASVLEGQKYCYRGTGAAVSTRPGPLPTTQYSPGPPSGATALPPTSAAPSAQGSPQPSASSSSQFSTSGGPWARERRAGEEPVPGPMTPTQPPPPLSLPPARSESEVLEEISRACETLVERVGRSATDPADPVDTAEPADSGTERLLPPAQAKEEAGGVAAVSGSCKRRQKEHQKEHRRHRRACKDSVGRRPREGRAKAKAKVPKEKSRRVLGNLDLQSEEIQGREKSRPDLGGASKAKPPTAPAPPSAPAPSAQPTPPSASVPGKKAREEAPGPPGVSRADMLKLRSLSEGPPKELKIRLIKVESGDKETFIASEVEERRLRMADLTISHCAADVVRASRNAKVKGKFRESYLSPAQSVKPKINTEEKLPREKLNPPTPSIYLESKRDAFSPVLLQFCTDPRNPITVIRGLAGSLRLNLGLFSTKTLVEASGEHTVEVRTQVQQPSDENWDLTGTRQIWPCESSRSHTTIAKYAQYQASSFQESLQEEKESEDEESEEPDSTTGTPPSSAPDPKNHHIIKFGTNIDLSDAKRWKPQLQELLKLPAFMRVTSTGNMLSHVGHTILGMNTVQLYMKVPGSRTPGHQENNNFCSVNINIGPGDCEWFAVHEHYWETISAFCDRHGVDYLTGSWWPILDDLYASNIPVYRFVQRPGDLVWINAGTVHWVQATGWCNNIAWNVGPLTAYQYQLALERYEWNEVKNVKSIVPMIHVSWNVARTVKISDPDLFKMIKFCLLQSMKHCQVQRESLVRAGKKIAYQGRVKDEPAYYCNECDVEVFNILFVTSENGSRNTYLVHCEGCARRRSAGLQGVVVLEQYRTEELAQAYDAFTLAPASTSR

[10] = target: T1, Lysine-specific demethylase 4A; assay: Inhibition of KDM4A (unknown origin) measured by AlphaScreen assay
[11] = target: T1, Lysine-specific demethylase 4A; assay: Inhibition of KDM4A (unknown origin) measured by formaldehyde dehydrogenase (FDH)-coupled fluorescence assay
[12] = target: T1, Lysine-specific demethylase 4A; assay: Inhibition of KDM4A (unknown origin) measured by LANCEUltra assay

SMILES: Oc1ccccc1-c1nc(-c2ccccc2O)n(-c2ccccc2)n1
EC50 [1]: 3.3 µM
GI50 [2]: 0.45 µM
GI50 [3]: 1.7 µM

SMILES: COC(=O)c1ccc(-n2nc(-c3ccccc3O)nc2-c2ccccc2O)cc1
EC50 [1]: 10 µM
GI50 [2]: 0.45 µM
GI50 [3]: 1.7 µM

SMILES: CCCCCC[n+]1ccccc1C=Cc1ccc(N(C)C)cc1
IC50 [4]: 0.28 µM
IC50 [5]: 0.28 µM

SMILES: CO[C@H]1/C=C\C=C(/C)C(=O)NC2=CC(=O)C(NCCN(C)C)=C(C[C@@H](C)C[C@H](OC)[C@H](O)[C@@H](C)/C=C(\C)[C@@H]1OC(N)=O)C2=O (stereo in doubt) [ALVESPIMYCIN]
IC50 [6]: 0.7 µM
IC50 [7]: 0.7 µM
IC50 [8]: 0.13 µM
IC50 [9]: 0.4 µM

SMILES: Cc1c(O)c(=O)ccn1C [DEFERIPRONE]
IC50 [11]: 3.22 µM
IC50 [12]: 3.33 µM

Second part, led by results:

IC50 [6]: 0.7 µM
IC50 [8]: 0.13 µM
IC50 [9]: 0.4 µM
SMILES: C=CCNC1=C2C[C@@H](C)C[C@H](OC)[C@H](O)[C@@H](C)/C=C(\C)[C@H](OC(N)=O)[C@@H](OC)/C=C\C=C(/C)C(=O)NC(=CC1=O)C2=O (stereo in doubt) [TANESPIMYCIN]

IC50 [10]: 0.006 µM
IC50 [7]: 0.0022 µM
SMILES: CC[C@H](C)[C@@H]1NC(=O)CNC(=O)[C@H](CO)NC(=O)[C@H](CCCNC(=N)N)NC(=O)[C@H](CCCNC(=N)N)NC(=O)[C@H](Cc2ccccc2)NC(=O)[C@H](CCCNC(=N)N)NC(=O)[C@H]([C@@H](C)O)NC(=O)[C@@H](Cc2ccc(O)cc2)NC(=O)CSC[C@@H](C(N)=O)NC(=O)[C@H](Cc2ccc(O)cc2)NC(=O)[C@H](Cc2ccc(O)cc2)NC(=O)[C@H](Cc2ccccc2)NC(=O)[C@H](C(C)C)NC1=O ({CH2CO}-[dY]TRFRRSGIVFYYC-NH2; thioether N-14)

IC50 [10]: 0.033 µM
IC50 [7]: 0.033 µM
SMILES: CC(C)[C@@H]1NC(=O)[C@@H](Cc2ccc(O)cc2)NC(=O)CSC[C@@H](C(N)=O)NC(=O)[C@H]([C@@H](C)O)NC(=O)[C@H](Cc2ccc(O)cc2)NC(=O)[C@H](Cc2c[nH]c3ccccc23)NC(=O)[C@H](CCCNC(=N)N)NC(=O)[C@H](Cc2c[nH]c3ccccc23)NC(=O)CNC(=O)[C@H](CO)NC(=O)[C@H](CCCNC(=N)N)NC(=O)[C@H]([C@@H](C)O)NC(=O)[C@H](CC(N)=O)NC(=O)[C@H](Cc2ccc(O)cc2)NC1=O ({CH2CO}-[dY]VYNTRSGWRWYTC-NH2; thioether N-14)

IC50 [11]: 3.22 µM
IC50 [12]: 3.33 µM
EC50 [1]: 40.5 µM
GI50 [3]: 5.5 µM
SMILES: O=C(O)c1ccc(-n2nc(-c3ccccc3O)nc2-c2ccccc2O)cc1 [DEFERASIROX]
GI50 [2]: 3.3 µM

IC50 [11]: 3.22 µM
IC50 [12]: 3.33 µM
SMILES: CC(=O)N(O)CCCCCNC(=O)CCC(=O)N(O)CCCCCNC(=O)CCC(=O)N(O)CCCCCN [DEFEROXAMINE]

IC50 [7]: 0.7 µM
IC50 [8]: 0.13 µM
IC50 [9]: 0.4 µM
SMILES: COC1=C2C[C@@H](C)C[C@H](OC)[C@H](O)[C@@H](C)/C=C(\C)[C@H](OC(N)=O)[C@@H](OC)/C=C\C=C(/C)C(=O)NC(=CC1=O)C2=O [GELDANAMYCIN]
